Format in all cases: biochemical
Assay [1] deals with T1, M2PYK (Homo sapiens, UniProt P14618).
T1 construct: gene PKM; recombinant His-tagged WT M2 isoform
Kind of assay: PYK enzyme activity assay, dose response with and without DTT and Ser.

Assay [2] deals with T1, M2PYK. Put plainly: enzyme activity assay, competition of activator Ser with inhibitors Ala and Phe.
For assay [3], the target named is T1, M2PYK. Put plainly: LDH-coupled enzyme assay with and without F-1,6-BP; protection from S-nitrosation (biotin switch).

In general, IC50 refers to the concentration needed to halve the response being measured.

Like-named read-outs stand apart in the source and are kept apart here.

T1 sequence (P14618 2-531): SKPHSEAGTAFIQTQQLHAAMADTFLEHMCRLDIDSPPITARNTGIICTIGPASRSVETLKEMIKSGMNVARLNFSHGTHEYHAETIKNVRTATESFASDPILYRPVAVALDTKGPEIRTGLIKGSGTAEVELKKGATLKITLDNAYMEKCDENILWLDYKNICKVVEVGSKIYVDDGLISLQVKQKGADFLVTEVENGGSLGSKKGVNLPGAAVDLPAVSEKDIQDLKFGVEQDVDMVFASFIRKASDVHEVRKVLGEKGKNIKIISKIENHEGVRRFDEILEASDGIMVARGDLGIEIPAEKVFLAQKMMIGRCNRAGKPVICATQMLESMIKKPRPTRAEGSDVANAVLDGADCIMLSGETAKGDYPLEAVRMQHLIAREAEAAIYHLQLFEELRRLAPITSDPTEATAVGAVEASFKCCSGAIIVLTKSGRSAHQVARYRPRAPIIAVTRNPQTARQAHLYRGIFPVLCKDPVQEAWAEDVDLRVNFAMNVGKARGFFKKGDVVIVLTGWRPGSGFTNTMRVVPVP

Consider `C[C@H](N)C(=O)O` [L-alanine], for which, in assay [1] (read-out: IC50), the IC50 came out at 45 µM. Molecule `N[C@@H](Cc1ccccc1)C(=O)O` [L-phenylalanine] displayed an IC50 in assay [1] of 57 µM.

With `N[C@@H](CO)C(=O)O` [Ser], the “enzyme activity assay, competition of activator Ser with inhibitors Ala and Phe” value in assay [2] is “Increasing Ser concentration further reduces the inhibitory effect of Ala which is expected as Ala and Ser compete”. `O=P(O)(O)OC[C@H]1OC(O)(COP(=O)(O)O)[C@@H](O)[C@@H]1O` (stereo partly shown) [fructose 1,6-bisphosphate]: in assay [3], the “LDH-coupled enzyme assay with and without F-1,6-BP; protection from S-nitrosatio” value is “M2PYK complexes with FBP and Phe stabilise M2PYK in a tetrameric state and reduce the amount of nitrosation”.

The values above are taken from article PMC6208296, “Redox regulation of pyruvate kinase M2 by cysteine oxidation and S-nitrosation” (Biochemical Journal, 2018).
